This is an account of results in patent US20240383852A1, “ANTI-VIRAL COMPOUNDS” (INFEX Therapeutics Limited, priority 2021, published 2024).

For one data set, the target named is T1, SARS-CoV-2 PLpro (Severe acute respiratory syndrome coronavirus 2, UniProt P0DTD1).
T1 construct: containing 60 nM papain-like protease
The experiment in a line: biochemical.

In data set [1] the test system is human Hep G2 cells (ATCC HB-8065). The experiment in a line: Cytotoxicity in Hep G2 cells (CellTiter-Glo). The class given is cell-based.
The mark [2] stands for this setting: 60 nM papain-like protease, 50 μM Z-RLRGG-AMC, pH 7.5, 37° C., read-out: SARS-CoV-2 PLpro IC50.
[3] abbreviates: Hep G2 cells, 100 μM test article, 24-hour exposure.

Where a name gives a salt, the structure may show the parent alone. Read-outs that look alike come from different tables or passages of the source. Some results are limits rather than exact numbers.

On to `Cc1ccc(N2CCN[C@@H](C(C)C)C2)cc1C(=O)N[C@H](C)c1cccc2ccccc12` [Example 19, 5-[(3S)-3-Isopropylpiperazin-1-yl]-2-methyl-N-[(1R)-1-(1-naphthyl)ethyl]benzamide], for which the IC50 on SARS-CoV-2 PLpro (setting [2]) is less than 2000 nM. Besides, in data set [1] (setting [3]), the “% Cell Viability” value is 1.0%.

Consider `COc1cccc([C@@H](C)NC(=O)c2cc(N3CCN(C)CC3)ccc2C)c1` [Example 29, N-[(1R)-1-(3-Methoxyphenyl)ethyl]-2-methyl-5-(4-methylpiperazin-1-yl)benzamide], for which the IC50 at SARS-CoV-2 PLpro (setting [2]) is less than 5000 nM. In data set [1] (setting [3]), the “% Cell Viability” value turned out to be 100%.

For `COc1cc(-c2cn(C)nc2C)cc([C@@H](C)NC(=O)c2cc(N3CC4CN(C)CC4C3)ccc2C)c1` (stereo partly drawn) [Example 254, N-[(1R)-1-[3-(1,3-Dimethylpyrazol-4-yl)-5-methoxy-phenyl]ethyl]-2-methyl-5-(2-methyl-1,3,3a,4,6,6a-hexahydropyrrolo[3,4-c]pyrrol-5-yl)benzamide], at SARS-CoV-2 PLpro (setting [2]), the IC50 was less than 2000 nM. Further, the “% Cell Viability” value in data set [1] (setting [3]) worked out at 57.0%.

Regarding `COc1cc(-c2cc(C(=O)N(C)C)n(C)c2)cc([C@@H](C)NC(=O)c2cc(N3C[C@H]4C[C@@H]3CN4C)ccc2C)c1` [Example 290, 4-[3-Methoxy-5-[(1R)-1-[[2-methyl-5-[(1R,4R)-5-methyl-2,5-diazabicyclo[2.2.1]heptan-2-yl]benzoyl]amino]ethyl]phenyl]-N,N,1-trimethyl-pyrrole-2-carboxamide], the IC50 on SARS-CoV-2 PLpro (setting [2]) was less than 2000 nM. Moreover, the “% Cell Viability” value in data set [1] (setting [3]) is 72.9%.

Turning to `Cc1ccc(N2CC3(CN(CCC(=O)O)C3)C2)cc1C(=O)N[C@H](C)c1cccc2ccccc12` [Example 168, 3-[2-[4-Methyl-3-[[(1R)-1-(1-naphthyl)ethyl]carbamoyl]phenyl]-2,6-diazaspiro[3.3]heptan-6-yl]propanoic acid], the IC50 on SARS-CoV-2 PLpro (setting [2]) is less than 5000 nM. Besides, the “% Cell Viability” value in data set [1] (setting [3]) was 111.2%.

For the molecule `Cc1ccc(-c2ccnc(N3CCNCC3)c2)cc1C(=O)N[C@H](C)c1cccc2ccccc12` [Example 140, 2-Methyl-N-[(1R)-1-(1-naphthyl)ethyl]-5-(2-piperazin-1-yl-4-pyridyl)benzamide], the IC50 at SARS-CoV-2 PLpro (setting [2]) was less than 10000 nM. The “% Cell Viability” value in data set [1] (setting [3]) amounted to 0.8%.

For the molecule `Cc1ccc(N2CCN(C)CC2)cc1C(=O)N[C@H](C)c1cccc(-c2ccc(=O)n(C)c2)c1` [Example 48, 2-Methyl-N-[(1R)-1-[3-(1-methyl-6-oxo-3-pyridyl)phenyl]ethyl]-5-(4-methylpiperazin-1-yl)benzamide], the half-maximal inhibitory concentration (IC50) at SARS-CoV-2 PLpro (setting [2]) was less than 5000 nM. Also, the “% Cell Viability” value in data set [1] (setting [3]) is on record as 63.6%.

For the molecule `CNCCN(C)C(=O)c1cccc(-c2cccc([C@@H](C)NC(=O)c3cc(N4CCN(C)CC4)ccc3C)c2)c1` [Example 99, 2-Methyl-N-[(1R)-1-[3-[3-[methyl-[2-(methylamino)ethyl]carbamoyl]phenyl]phenyl]ethyl]-5-(4-methylpiperazin-1-yl)benzamide Hydrochloride Salt], the IC50 on SARS-CoV-2 PLpro (setting [2]) is less than 2000 nM. The “% Cell Viability” value in data set [1] (setting [3]) worked out at 104.6%.

Turning to `COc1ccc([C@@H](C)NC(=O)c2cc(N3CCN(C)CC3)ccc2C)cc1-c1cnn(C(F)F)c1` [Example 208, N-[(1R)-1-[3-[1-(Difluoromethyl)pyrazol-4-yl]-4-methoxy-phenyl]ethyl]-2-methyl-5-(4-methylpiperazin-1-yl)benzamide], the IC50 on SARS-CoV-2 PLpro (setting [2]) was less than 2000 nM. For the same molecule, the “% Cell Viability” value in data set [1] (setting [3]) is 87.8%.

`CC(=O)N1CCN(c2ccc(C)c(C(=O)N[C@H](C)c3cccc4ccccc34)c2)CC1` [Example 109, 5-(4-Acetylpiperazin-1-yl)-2-methyl-N-[(1R)-1-(1-naphthyl)ethyl]benzamide]: the IC50 on SARS-CoV-2 PLpro (setting [2]) was less than 10000 nM. For the same molecule, the “% Cell Viability” value in data set [1] (setting [3]) amounted to 72.9%.

On to `COc1cc(-c2cnn(C)c2)cc([C@@H](C)NC(=O)c2cc(N3CCNC4(CC4)C3)ccc2C)c1` [Example 264, 5-(4,7-Diazaspiro[2.5]octan-7-yl)-N-[(1R)-1-[3-methoxy-5-(1-methylpyrazol-4-yl)phenyl]ethyl]-2-methyl-benzamide], for which the IC50 at SARS-CoV-2 PLpro (setting [2]) is less than 2000 nM. For the same molecule, the “% Cell Viability” value in data set [1] (setting [3]) amounted to 68.5%.

`Cc1ccc(N2CCN(C)CC2)cc1C(=O)N[C@H](C)c1cccc(-c2cccc(=O)[nH]2)c1` [Example 76, 2-Methyl-5-(4-methylpiperazin-1-yl)-N-[(1R)-1-[3-(6-oxo-1H-pyridin-2-yl)phenyl]ethyl]benzamide]: the IC50 on SARS-CoV-2 PLpro (setting [2]) is less than 2000 nM. The “% Cell Viability” value in data set [1] (setting [3]) was 81.2%.

Regarding `Cc1ccc(N2CCN(CCO)CC2)cc1C(=O)N[C@H](C)c1cccc2ccccc12` [Example 111, 5-[4-(2-Hydroxyethyl)piperazin-1-yl]-2-methyl-N-[(1R)-1-(1-naphthyl)ethyl]benzamide], on SARS-CoV-2 PLpro (setting [2]), the IC50 was less than 2000 nM. For the same molecule, the “% Cell Viability” value in data set [1] (setting [3]) came to 74.8%.

Consider `Cc1ccc(N2CCN(C)C(C)C2)cc1C(=O)N[C@H](C)c1cccc2ccccc12` (stereo partly drawn) [Example 126, 5-(3,4-Dimethylpiperazin-1-yl)-2-methyl-N-[(1R)-1-(1-naphthyl)ethyl]benzamide], for which the IC50 on SARS-CoV-2 PLpro (setting [2]) is less than 2000 nM. In addition, the “% Cell Viability” value in data set [1] (setting [3]) amounted to 62.8%.

`Cc1ccc(N2CCN(C)CC2)cc1C(=O)N[C@H](C)c1cccc(-c2cccc(C(=O)N3CCN(C)CC3)c2)c1` [Example 88, 2-Methyl-N-[(1R)-1-[3-[3-(4-methylpiperazine-1-carbonyl)phenyl]phenyl]ethyl]-5-(4-methylpiperazin-1-yl)benzamide]: the IC50 at SARS-CoV-2 PLpro (setting [2]) is less than 2000 nM. The “% Cell Viability” value in data set [1] (setting [3]) is 78.8%.

For `Cc1ccc(N2C[C@H]3C[C@@H]2CN3C)cc1C(=O)N[C@H](C)c1cccc(-c2cccc(C(C)(C)O)c2)c1` [Example 57, N-[(1R)-1-[3-[3-(1-Hydroxy-1-methyl-ethyl)phenyl]phenyl]ethyl]-2-methyl-5-[(1R,4R)-5-methyl-2,5-diazabicyclo[2.2.1]heptan-2-yl]benzamide], the IC50 at SARS-CoV-2 PLpro (setting [2]) is less than 2000 nM. The “% Cell Viability” value in data set [1] (setting [3]) was determined as 0.9%.

For `COc1ccc(-c2cccc([C@@H](C)NC(=O)c3cc(N4CCN(C)CC4)ccc3C)c2)cc1` [Example 40, N-[(1R)-1-[3-(4-Methoxyphenyl)phenyl]ethyl]-2-methyl-5-(4-methylpiperazin-1-yl)benzamide], the IC50 at SARS-CoV-2 PLpro (setting [2]) is less than 2000 nM. The “% Cell Viability” value in data set [1] (setting [3]) was determined as 0.9%.

In the case of `Cc1ccc(C2=CCNCC2)cc1C(=O)N[C@H](C)c1cccc2ccccc12` [Example 154, 2-Methyl-N-[(1R)-1-(1-naphthyl)ethyl]-5-(1,2,3,6-tetrahydropyridin-4-yl)benzamide], on SARS-CoV-2 PLpro, the IC50 is less than 2000 nM. For the same molecule, the “% Cell Viability” value in data set [1] (human, 24 h, 100 μM) is 2.1%.

In the case of `Cc1ccc(N2CCN(C)CC2)cc1C(=O)N[C@H](C)c1cccc(N2CCN(C)CC2)c1` [Example 103, 2-Methyl-5-(4-methylpiperazin-1-yl)-N-[(1R)-1-[3-(4-methylpiperazin-1-yl)phenyl]ethyl]benzamide], the IC50 at SARS-CoV-2 PLpro (setting [2]) was less than 5000 nM. For the same molecule, in data set [1] (setting [3]), the “% Cell Viability” value was 91.4%.

Consider `COc1cc(Br)cc([C@@H](C)NC(=O)c2cc(N3CCN(C)CC3)ccc2C)c1` [Example 186, N-[(1R)-1-(3-Bromo-5-methoxy-phenyl)ethyl]-2-methyl-5-(4-methylpiperazin-1-yl)benzamide], for which the IC50 at SARS-CoV-2 PLpro (setting [2]) is less than 2000 nM. In addition, the “% Cell Viability” value in data set [1] (setting [3]) is 1.0%.

As for `Cc1ccc(N2CCN(C)CC2)cc1C(=O)N[C@H](C)c1cc(-c2ccccc2)cs1` [Example 231, 2-Methyl-5-(4-methylpiperazin-1-yl)-N-[(1R)-1-(4-phenyl-2-thienyl)ethyl]benzamide], the IC50 at SARS-CoV-2 PLpro (setting [2]) was less than 2000 nM. In addition, the “% Cell Viability” value in data set [1] (setting [3]) turned out to be 1.6%.

In the case of `Cc1ccc(N2CCN(C)CC2)cc1C(=O)N[C@H](C)c1cccc(-c2cccc(C(=O)N3CCOCC3)c2)c1` [Example 92, 2-Methyl-5-(4-methylpiperazin-1-yl)-N-[(1R)-1-[3-[3-(morpholine-4-carbonyl)phenyl]phenyl]ethyl]benzamide], the IC50 at SARS-CoV-2 PLpro (setting [2]) was less than 2000 nM. Besides, in data set [1] (setting [3]), the “% Cell Viability” value is 76.9%.

In the case of `Cc1ccc(N2CCN3CCCC3C2)cc1C(=O)N[C@H](C)c1cccc2ccccc12` (stereo partly drawn) [Example 125, 5-(3,4,6,7,8,8a-Hexahydro-1H-pyrrolo[1,2-a]pyrazin-2-yl)-2-methyl-N-[(1R)-1-(1-naphthyl)ethyl]benzamide hydrochloride salt], the IC50 on SARS-CoV-2 PLpro (setting [2]) is less than 2000 nM. Besides, the “% Cell Viability” value in data set [1] (setting [3]) is on record as 55.8%.

Take `Cc1ccc(N2CCS(=O)(=O)CC2)cc1C(=O)N[C@H](C)c1cccc2ccccc12` [Example 26, 5-(1,1-Dioxo-1,4-thiazinan-4-yl)-2-methyl-N-[(1R)-1-(1-naphthyl)ethyl]benzamide]: the IC50 on SARS-CoV-2 PLpro (setting [2]) is less than 100000 nM. In addition, in data set [1] (setting [3]), the “% Cell Viability” value is reported as 82.8%.

For `Cc1ccc(N2CCN(C)CC2)cc1C(=O)N[C@H](C)c1cccc(-c2ccc(N3CCN(CCC(=O)O)CC3)cc2)c1` [Example 165, 3-[4-[4-[3-[(1R)-1-[[2-Methyl-5-(4-methylpiperazin-1-yl)benzoyl]amino]ethyl]phenyl]phenyl]piperazin-1-yl]propanoic acid], the IC50 at SARS-CoV-2 PLpro (setting [2]) is less than 2000 nM. Moreover, the “% Cell Viability” value in data set [1] (setting [3]) was 132%.

In the case of `Cc1ccc(N2CCN(C)CC2)cc1C(=O)N[C@H](C)c1cccc(-c2cnn(C)c2)c1` [Example 53, 2-Methyl-5-(4-methylpiperazin-1-yl)-N-[(1R)-1-[3-(1-methylpyrazol-4-yl)phenyl]ethyl]benzamide], the IC50 at SARS-CoV-2 PLpro (setting [2]) was less than 2000 nM. Besides, the “% Cell Viability” value in data set [1] (setting [3]) is 82.4%.

`COc1ccc([C@@H](C)NC(=O)c2cc(N3CCN(C)CC3)ccc2C)cc1-c1cccc(C(C)(C)O)c1` [Example 204, N-[(1R)-1-[3-[3-(1-Hydroxy-1-methyl-ethyl)phenyl]-4-methoxy-phenyl]ethyl]-2-methyl-5-(4-methylpiperazin-1-yl)benzamide]: the IC50 on SARS-CoV-2 PLpro (setting [2]) was less than 2000 nM. In addition, the “% Cell Viability” value in data set [1] (setting [3]) amounted to 81.4%.

As for `CC(=O)N1CCN(c2cccc(C(=O)N[C@H](C)c3cccc4ccccc34)c2)CC1` [Example 159, 3-(4-Acetylpiperazin-1-yl)-N-[(1R)-1-(1-naphthyl)ethyl]benzamide], at SARS-CoV-2 PLpro (setting [2]), the IC50 is greater than 100000 nM. Also, the “% Cell Viability” value in data set [1] (setting [3]) is 81.5%.

Usually IC50 stands for the concentration needed to halve the response being measured.
